One experiment has as its target EGFR wildtype (WT) (Homo sapiens, UniProt P00533). In words: Biochemical EGFR kinase inhibition assay (Lance Ultra TR-FRET), wildtype. The gist of the method: (§1)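 Step 1: compound in kinase buffer, 0.003–10 μM. Step 2: kinase reaction 1 h at room temperature. Step 4: TR-FRET read at 615/665 nm; IC50 calculated.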
For orientation: In TR-FRET formats the signal depends on donor and acceptor labels being close together.

For the next experiment, the target named is EGFR L858R/C797S (Homo sapiens, UniProt P00533, C797S/L858R). In words: Biochemical EGFR kinase inhibition assay (Lance Ultra TR-FRET), double mutant L858R/C797S. An outline of the steps: as §1
Chain of EGFR L858R/C797S (P00533 25-1210 C797S/L858R): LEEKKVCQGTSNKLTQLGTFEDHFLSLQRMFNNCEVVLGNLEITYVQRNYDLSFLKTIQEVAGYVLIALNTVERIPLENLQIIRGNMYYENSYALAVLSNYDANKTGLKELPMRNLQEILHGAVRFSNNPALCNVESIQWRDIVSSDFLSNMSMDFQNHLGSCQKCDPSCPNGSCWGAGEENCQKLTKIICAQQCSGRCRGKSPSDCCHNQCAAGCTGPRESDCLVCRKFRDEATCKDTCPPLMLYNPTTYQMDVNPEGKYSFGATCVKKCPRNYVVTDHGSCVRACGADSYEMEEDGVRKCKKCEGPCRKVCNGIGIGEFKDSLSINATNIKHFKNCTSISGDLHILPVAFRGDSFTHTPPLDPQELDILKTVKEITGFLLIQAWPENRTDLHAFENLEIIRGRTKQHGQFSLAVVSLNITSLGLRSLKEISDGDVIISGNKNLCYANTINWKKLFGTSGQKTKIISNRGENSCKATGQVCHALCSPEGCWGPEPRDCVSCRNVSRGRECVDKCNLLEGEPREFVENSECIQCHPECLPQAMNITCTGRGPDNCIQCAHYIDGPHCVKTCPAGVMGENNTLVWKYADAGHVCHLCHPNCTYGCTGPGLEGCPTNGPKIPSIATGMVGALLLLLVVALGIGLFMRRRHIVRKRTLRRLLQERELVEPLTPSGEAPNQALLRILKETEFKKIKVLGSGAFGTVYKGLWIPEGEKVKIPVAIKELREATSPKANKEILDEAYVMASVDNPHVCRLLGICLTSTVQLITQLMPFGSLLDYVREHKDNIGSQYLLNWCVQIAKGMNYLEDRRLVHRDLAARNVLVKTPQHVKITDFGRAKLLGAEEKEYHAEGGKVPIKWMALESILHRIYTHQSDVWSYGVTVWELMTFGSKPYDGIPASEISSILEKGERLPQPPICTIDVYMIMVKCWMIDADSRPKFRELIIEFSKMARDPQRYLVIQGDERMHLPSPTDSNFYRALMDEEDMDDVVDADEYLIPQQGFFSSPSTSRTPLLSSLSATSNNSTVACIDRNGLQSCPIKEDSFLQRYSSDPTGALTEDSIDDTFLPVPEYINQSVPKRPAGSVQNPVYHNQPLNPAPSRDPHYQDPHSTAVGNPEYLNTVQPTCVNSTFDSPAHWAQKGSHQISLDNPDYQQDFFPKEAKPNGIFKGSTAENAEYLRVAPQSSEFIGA
The next experiment concerns the target EGFR Del19/T790M/C797S (Homo sapiens, UniProt P00533, C797S/DEL746-750/T790M). In words: Biochemical EGFR kinase inhibition assay (Lance Ultra TR-FRET), triple mutant del19/T790M/C797S. The gist of the method:
as §1

The next experiment addresses EGFR Del19/C797S (Homo sapiens, UniProt P00533, C797S/DEL746-750). In words: Biochemical EGFR kinase inhibition assay (Lance Ultra TR-FRET), double mutant del19/C797S. An outline of the steps: as §1
The target in another experiment is EGFR L858R/T790M/C797S (Homo sapiens, UniProt P00533, C797S/L858R/T790M). Description: Biochemical EGFR kinase inhibition assay (Lance Ultra TR-FRET), triple mutant L858R/T790M/C797S. An outline of the steps:
as §1

[1] abbreviates: IC50 L858R/C797S (nM), 100 μM ATP.
Where [2] appears, read: IC50 Del19/T790M/C797S (nM), 100 μM ATP.
The mark [3] stands for this setting: IC50 Del19/C797S (nM), 100 μM ATP.
The mark [4] stands for this setting: IC50 L858R/T790M/C797S (nM), 100 μM ATP.
The mark [5] stands for this setting: Km ATP, read-out: IC50 WT (nM) Km ATP.
The mark [6] stands for this setting: Km ATP, read-out: IC50 L858R/C797S (nM) Km ATP.
Setting [7] is: Km ATP, read-out: IC50 Del19/T790M/C797S (nM) Km ATP.
Setting [8] is: Km ATP, read-out: IC50 Del19/C797S (nM) Km ATP.
[9] abbreviates: ATP at Km, read-out: IC50 WT (nM), Km ATP.
[10] abbreviates: ATP at Km, read-out: IC50 L858R/C797S (nM), Km ATP.
[11] abbreviates: ATP at Km, read-out: IC50 Del19/T790M/C797S (nM), Km ATP.
The mark [12] stands for this setting: ATP at Km, read-out: IC50 Del19/C797S (nM), Km ATP.
[13] abbreviates: ATP at Km, read-out: IC50 L858R/T790M/C797S (nM), Km ATP.

Where two headings read alike, the source gives them in different places.

Chain of EGFR wildtype (WT) (P00533 25-1210): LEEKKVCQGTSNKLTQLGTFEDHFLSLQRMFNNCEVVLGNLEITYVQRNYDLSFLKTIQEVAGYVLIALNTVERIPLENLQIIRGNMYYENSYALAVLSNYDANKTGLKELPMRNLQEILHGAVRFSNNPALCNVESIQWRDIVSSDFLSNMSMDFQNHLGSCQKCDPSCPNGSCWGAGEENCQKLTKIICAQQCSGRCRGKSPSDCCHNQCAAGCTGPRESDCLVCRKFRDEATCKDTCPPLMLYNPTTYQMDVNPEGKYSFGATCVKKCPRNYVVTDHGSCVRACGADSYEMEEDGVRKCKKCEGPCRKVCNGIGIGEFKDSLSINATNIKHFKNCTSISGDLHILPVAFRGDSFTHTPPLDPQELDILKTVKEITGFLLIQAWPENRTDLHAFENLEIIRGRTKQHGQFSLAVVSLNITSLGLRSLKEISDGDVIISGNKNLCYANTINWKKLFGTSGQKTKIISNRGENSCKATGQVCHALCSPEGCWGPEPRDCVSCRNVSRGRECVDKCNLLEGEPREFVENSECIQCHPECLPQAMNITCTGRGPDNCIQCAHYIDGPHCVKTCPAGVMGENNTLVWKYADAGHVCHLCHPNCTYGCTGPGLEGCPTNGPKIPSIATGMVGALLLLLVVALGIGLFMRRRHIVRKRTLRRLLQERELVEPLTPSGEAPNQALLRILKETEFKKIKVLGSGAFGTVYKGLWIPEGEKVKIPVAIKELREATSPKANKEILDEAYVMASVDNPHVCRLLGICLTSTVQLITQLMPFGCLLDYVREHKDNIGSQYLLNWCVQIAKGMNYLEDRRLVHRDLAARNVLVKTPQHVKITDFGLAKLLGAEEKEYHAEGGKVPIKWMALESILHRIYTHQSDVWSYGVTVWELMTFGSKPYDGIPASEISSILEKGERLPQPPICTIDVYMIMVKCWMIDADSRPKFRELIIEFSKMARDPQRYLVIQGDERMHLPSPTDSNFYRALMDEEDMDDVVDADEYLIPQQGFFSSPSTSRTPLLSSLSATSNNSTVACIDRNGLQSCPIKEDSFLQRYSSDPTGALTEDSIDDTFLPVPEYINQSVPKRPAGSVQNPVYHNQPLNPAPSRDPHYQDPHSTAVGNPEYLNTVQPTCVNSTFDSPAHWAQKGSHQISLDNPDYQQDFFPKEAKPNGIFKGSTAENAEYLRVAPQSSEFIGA
Chain of EGFR Del19/C797S (P00533 with tags, fused parts or gaps DEL746-750/C797S): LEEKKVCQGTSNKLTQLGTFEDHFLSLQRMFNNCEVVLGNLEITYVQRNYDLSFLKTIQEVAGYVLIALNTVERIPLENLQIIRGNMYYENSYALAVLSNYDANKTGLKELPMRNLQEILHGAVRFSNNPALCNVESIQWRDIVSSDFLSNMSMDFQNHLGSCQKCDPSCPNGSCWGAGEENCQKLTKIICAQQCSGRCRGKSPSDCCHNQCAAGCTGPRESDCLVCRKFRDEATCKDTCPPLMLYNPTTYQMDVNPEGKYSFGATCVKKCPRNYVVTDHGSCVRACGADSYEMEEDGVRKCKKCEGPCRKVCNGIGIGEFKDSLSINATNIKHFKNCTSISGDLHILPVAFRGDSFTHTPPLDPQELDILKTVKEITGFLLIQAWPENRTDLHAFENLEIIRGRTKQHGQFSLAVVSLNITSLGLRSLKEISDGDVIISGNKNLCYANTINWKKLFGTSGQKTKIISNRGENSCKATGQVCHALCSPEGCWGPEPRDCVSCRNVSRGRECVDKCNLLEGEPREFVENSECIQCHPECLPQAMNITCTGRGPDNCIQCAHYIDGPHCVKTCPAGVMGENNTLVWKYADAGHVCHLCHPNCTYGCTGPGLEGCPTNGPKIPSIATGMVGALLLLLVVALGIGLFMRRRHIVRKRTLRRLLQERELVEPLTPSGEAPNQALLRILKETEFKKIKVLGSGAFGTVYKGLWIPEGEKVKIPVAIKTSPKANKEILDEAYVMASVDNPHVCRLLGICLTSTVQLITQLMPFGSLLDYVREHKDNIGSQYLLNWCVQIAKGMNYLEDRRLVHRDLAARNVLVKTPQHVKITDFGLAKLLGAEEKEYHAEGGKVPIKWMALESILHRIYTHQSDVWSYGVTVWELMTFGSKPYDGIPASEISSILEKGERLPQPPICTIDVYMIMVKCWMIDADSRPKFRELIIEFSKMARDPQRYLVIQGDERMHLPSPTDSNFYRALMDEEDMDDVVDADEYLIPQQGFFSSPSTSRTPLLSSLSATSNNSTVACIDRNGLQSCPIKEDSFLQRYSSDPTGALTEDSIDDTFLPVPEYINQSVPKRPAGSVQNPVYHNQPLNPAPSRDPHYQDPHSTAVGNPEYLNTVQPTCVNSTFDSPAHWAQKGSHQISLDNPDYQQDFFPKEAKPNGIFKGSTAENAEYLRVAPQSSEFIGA
Chain of EGFR L858R/T790M/C797S (P00533 25-1210 T790M/C797S/L858R): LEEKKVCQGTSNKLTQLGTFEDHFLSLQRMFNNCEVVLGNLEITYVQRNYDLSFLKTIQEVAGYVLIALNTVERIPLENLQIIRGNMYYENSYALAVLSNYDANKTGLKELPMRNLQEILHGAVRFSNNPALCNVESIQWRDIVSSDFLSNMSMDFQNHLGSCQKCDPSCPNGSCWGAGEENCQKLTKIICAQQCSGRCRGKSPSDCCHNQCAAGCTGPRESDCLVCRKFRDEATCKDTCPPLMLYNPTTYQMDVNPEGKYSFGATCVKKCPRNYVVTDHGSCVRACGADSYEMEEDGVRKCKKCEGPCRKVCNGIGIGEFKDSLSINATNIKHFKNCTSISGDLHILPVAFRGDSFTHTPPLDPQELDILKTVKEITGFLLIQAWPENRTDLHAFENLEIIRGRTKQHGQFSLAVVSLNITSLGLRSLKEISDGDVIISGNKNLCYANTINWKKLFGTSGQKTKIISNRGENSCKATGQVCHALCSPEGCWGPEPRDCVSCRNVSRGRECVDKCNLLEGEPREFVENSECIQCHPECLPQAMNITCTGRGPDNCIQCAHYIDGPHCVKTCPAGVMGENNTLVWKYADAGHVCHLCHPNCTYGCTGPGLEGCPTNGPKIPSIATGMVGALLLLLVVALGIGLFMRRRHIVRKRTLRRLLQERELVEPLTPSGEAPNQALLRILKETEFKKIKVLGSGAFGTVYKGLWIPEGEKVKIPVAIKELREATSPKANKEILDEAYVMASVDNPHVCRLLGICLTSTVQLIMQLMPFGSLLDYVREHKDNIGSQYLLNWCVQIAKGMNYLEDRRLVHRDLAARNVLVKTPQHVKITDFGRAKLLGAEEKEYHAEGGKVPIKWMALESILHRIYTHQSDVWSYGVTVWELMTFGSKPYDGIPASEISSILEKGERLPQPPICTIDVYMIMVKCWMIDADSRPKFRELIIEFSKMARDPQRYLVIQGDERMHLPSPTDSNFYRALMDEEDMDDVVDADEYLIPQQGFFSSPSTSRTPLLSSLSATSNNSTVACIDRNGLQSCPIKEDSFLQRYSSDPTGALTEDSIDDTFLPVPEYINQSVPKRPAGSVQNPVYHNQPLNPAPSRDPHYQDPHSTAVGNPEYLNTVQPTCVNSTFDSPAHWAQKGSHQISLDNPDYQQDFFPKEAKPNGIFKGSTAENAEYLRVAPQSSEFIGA

On to `CC(C)NC1CCN(c2cc(Nc3ccnc(-c4cnn(S(=O)(=O)C5CC5)c4)n3)ncc2C#Cc2cnn(C)c2)CC1` [Example 64, 2-(1-(Cyclopropylsulfonyl)-1H-pyrazol-4-yl)-N-(4-(4-(isopropylamino)piperidin-1-yl)-5-((1-methyl-1H-pyrazol-4-yl)ethynyl)pyridin-2-yl)pyrimidin-4-amine], for which the IC50 at EGFR wildtype (WT) (IC50 WT (nM), 100 μM ATP) is above 10000 nM; on EGFR L858R/C797S (setting [1]), 306 nM; against EGFR Del19/T790M/C797S (setting [2]), 1 nM; against EGFR Del19/C797S (setting [3]), 88.3 nM; against EGFR L858R/T790M/C797S (setting [4]), 2 nM.

In the case of `O=S(=O)(C1CC1)n1cc(-c2nccc(Nc3cc(N4CCC(CCO)CC4)c(C#Cc4cnn(C5CC5(F)F)c4)cn3)n2)cn1` (centres unmarked) [Example 84, 2-(1-(2-((2-(1-(Cyclopropylsulfonyl)-1H-pyrazol-4-yl)pyrimidin-4-yl)amino)-5-((1-(2,2-difluorocyclopropyl)-1H-pyrazol-4-yl)ethynyl)pyridin-4-yl)piperidin-4-yl)ethan-1-ol], the IC50 against EGFR wildtype (WT) (IC50 WT (nM), 100 μM ATP) was above 10000 nM; against EGFR L858R/C797S (setting [1]), 33 nM; against EGFR Del19/T790M/C797S (setting [2]), 3.3 nM; against EGFR Del19/C797S (setting [3]) it was 7.2 nM; against EGFR L858R/T790M/C797S (setting [4]), 6.7 nM.

Turning to `CC1(C#Cc2cnc(Nc3ccnc(-c4cnn(S(=O)(=O)C5CC5)c4)n3)cc2NC[C@H]2CC[C@H](CO)CC2)CC1` [Example 405, ((1r,4r)-4-(((2-((2-(1-(Cyclopropylsulfonyl)-1H-pyrazol-4-yl)pyrimidin-4-yl)amino)-5-((1-methylcyclopropyl)ethynyl)pyridin-4-yl)amino)methyl)cyclohexyl)methanol], the IC50 was above 10000 nM against EGFR wildtype (WT) (IC50 WT (nM), 100 μM ATP); 3900 nM against EGFR L858R/C797S (setting [1]); 46.5 nM against EGFR Del19/T790M/C797S (setting [2]); 249 nM against EGFR Del19/C797S (setting [3]); 94.2 nM at EGFR L858R/T790M/C797S (setting [4]).

On to `COC1CCN(c2cc(Nc3ccnc(-c4cnn(S(=O)(=O)C5CC5)c4)n3)ncc2C#Cc2cnn(C)c2)CC1` [Example 15, 2-(1-(Cyclopropylsulfonyl)-1H-pyrazol-4-yl)-N-(4-(4-methoxypiperidin-1-yl)-5-((1-methyl-1H-pyrazol-4-yl)ethynyl)pyridin-2-yl)pyrimidin-4-amine], for which the IC50 was determined as 661 nM against EGFR wildtype (WT) (IC50 WT (nM), 100 μM ATP); 25.5 nM against EGFR L858R/C797S (setting [1]); 2.6 nM against EGFR Del19/T790M/C797S (setting [2]); 6.4 nM at EGFR Del19/C797S (setting [3]); 1.6 nM at EGFR L858R/T790M/C797S (setting [4]).

In the case of `CN(C)CCn1cc(C#Cc2cnc(Nc3ccnc(-c4cnn(S(=O)(=O)C5CC5)c4)n3)cc2N2CCC(F)(CO)CC2)cn1` [Example 117, (1-(2-((2-(1-(Cyclopropylsulfonyl)-1H-pyrazol-4-yl)pyrimidin-4-yl)amino)-5-((1-(2-(dimethylamino)ethyl)-1H-pyrazol-4-yl)ethynyl)pyridin-4-yl)-4-fluoropiperidin-4-yl)methanol], the IC50 against EGFR wildtype (WT) (IC50 WT (nM), 100 μM ATP) was 1020 nM; on EGFR wildtype (WT) (setting [5]), 3.7 nM; against EGFR L858R/C797S (setting [1]) it was 3.4 nM; at EGFR L858R/C797S (setting [6]) it was 0.3 nM; at EGFR Del19/T790M/C797S (setting [2]), 0.4 nM; at EGFR Del19/T790M/C797S (setting [7]), 0.3 nM. Besides, the IC50 at EGFR Del19/C797S (setting [3]) is 0.7 nM; on EGFR Del19/C797S (setting [8]) it was 0.4 nM; on EGFR L858R/T790M/C797S (setting [4]), 0.3 nM; on EGFR L858R/T790M/C797S (Km ATP, read-out: IC50 L858R/T790M/C797S (nM) Km ATP), 0.2 nM.

With `CC1(CO)CCN(c2cc(Nc3ccnc(-c4cnn(S(=O)(=O)C5CC5)c4)n3)ncc2C#Cc2cnn3c2CN(CC(F)F)CC3)CC1` [Example 151, (1-(2-((2-(1-(Cyclopropylsulfonyl)-1H-pyrazol-4-yl)pyrimidin-4-yl)amino)-5-((5-(2,2-difluoroethyl)-4,5,6,7-tetrahydropyrazolo[1,5-a]pyrazin-3-yl)ethynyl)pyridin-4-yl)-4-methylpiperidin-4-yl)methanol], the IC50 on EGFR wildtype (WT) (setting [9]) is 29.4 nM; on EGFR wildtype (WT) (IC50 WT (nM), 100 μM ATP) it was above 10000 nM; at EGFR L858R/C797S (setting [10]), 8.6 nM; at EGFR L858R/C797S (setting [1]), 57.8 nM; at EGFR Del19/T790M/C797S (setting [11]), 2.4 nM; against EGFR Del19/T790M/C797S (setting [2]), 2.6 nM. In addition, the IC50 at EGFR Del19/C797S (setting [12]) worked out at 4.2 nM; on EGFR Del19/C797S (setting [3]) it was 3.5 nM; at EGFR L858R/T790M/C797S (setting [13]), 1.1 nM; against EGFR L858R/T790M/C797S (setting [4]), 3 nM.

Take `CC1(CO)CCN(c2cc(Nc3ccnc(-c4cnn(S(=O)(=O)C5CC5)c4)n3)ncc2C#Cc2nc(C(F)(F)F)cs2)CC1` [Example 291, (1-(2-((2-(1-(Cyclopropylsulfonyl)-1H-pyrazol-4-yl)pyrimidin-4-yl)amino)-5-((4-(trifluoromethyl)thiazol-2-yl)ethynyl)pyridin-4-yl)-4-methylpiperidin-4-yl)methanol]: the IC50 at EGFR wildtype (WT) (setting [9]) was 615 nM; at EGFR wildtype (WT) (IC50 WT (nM), 100 μM ATP) it was above 10000 nM; on EGFR L858R/C797S (setting [10]), 36.7 nM; at EGFR L858R/C797S (setting [1]), 383 nM; at EGFR Del19/T790M/C797S (setting [11]) it was 4.5 nM; on EGFR Del19/T790M/C797S (setting [2]), 7.4 nM. In addition, the IC50 was found to be 8.9 nM at EGFR Del19/C797S (setting [12]), 22.5 nM at EGFR Del19/C797S (setting [3]), 3.6 nM on EGFR L858R/T790M/C797S (setting [13]) and 14.9 nM at EGFR L858R/T790M/C797S (setting [4]).

For `CC1(CO)CCN(c2cc(Nc3ccnc(-c4cnn(S(=O)(=O)C5CC5)c4)n3)ncc2C#Cc2ncc(CN3CCOCC3)cn2)CC1` [Example 193, (1-(2-((2-(1-(Cyclopropylsulfonyl)-1H-pyrazol-4-yl)pyrimidin-4-yl)amino)-5-((5-(morpholinomethyl)pyrimidin-2-yl)ethynyl)pyridin-4-yl)-4-methylpiperidin-4-yl)methanol], the IC50 at EGFR wildtype (WT) (setting [9]) was determined as 2.2 nM; against EGFR wildtype (WT) (IC50 WT (nM), 100 μM ATP), 1270 nM; at EGFR L858R/C797S (setting [10]), 0.9 nM; against EGFR L858R/C797S (setting [1]), 6.6 nM; on EGFR Del19/T790M/C797S (setting [11]) it was 0.5 nM; against EGFR Del19/T790M/C797S (setting [2]), 0.6 nM. For the same molecule, the IC50 on EGFR Del19/C797S (setting [12]) is 0.4 nM; on EGFR Del19/C797S (setting [3]), 0.7 nM; on EGFR L858R/T790M/C797S (setting [13]) it was 0.2 nM; at EGFR L858R/T790M/C797S (setting [4]) it was 0.5 nM.

In the case of `Cn1cc(C#Cc2cnc(Nc3ccnc(-c4cnn(S(=O)(=O)C5CC5)c4)n3)cc2N2CCC(O)CC2)cn1` [Example 27, 1-(2-((2-(1-(Cyclopropylsulfonyl)-1H-pyrazol-4-yl)pyrimidin-4-yl)amino)-5-((1-methyl-1H-pyrazol-4-yl)ethynyl)pyridin-4-yl)piperidin-4-ol], the IC50 against EGFR wildtype (WT) (IC50 WT (nM), 100 μM ATP) is above 10000 nM; on EGFR wildtype (WT) (setting [5]), 22 nM; against EGFR L858R/C797S (setting [1]), 27.8 nM; at EGFR L858R/C797S (setting [6]), 3.6 nM; on EGFR Del19/T790M/C797S (setting [2]), 0.6 nM; on EGFR Del19/T790M/C797S (setting [7]) it was 0.6 nM. The values for the IC50 at EGFR Del19/C797S (setting [3]), on EGFR Del19/C797S (setting [8]) and against EGFR L858R/T790M/C797S (setting [4]) were 4.1 nM, 4 nM and 1.5 nM, respectively.

Take `CN1CCC2(CC1)CCN(c1cc(Nc3ccnc(-c4cnn(S(=O)(=O)C5CC5)c4)n3)ncc1C#Cc1cnn(C(F)F)c1)CC2` [Example 321, 2-(1-(Cyclopropylsulfonyl)-1H-pyrazol-4-yl)-N-(5-((1-(difluoromethyl)-1H-pyrazol-4-yl)ethynyl)-4-(9-methyl-3,9-diazaspiro[5.5]undecan-3-yl)pyridin-2-yl)pyrimidin-4-amine]: the IC50 against EGFR wildtype (WT) (IC50 WT (nM), 100 μM ATP) amounted to 5850 nM; on EGFR L858R/C797S (setting [1]), 45.2 nM; at EGFR Del19/T790M/C797S (setting [2]), 0.7 nM; on EGFR Del19/C797S (setting [3]), 8 nM; at EGFR L858R/T790M/C797S (setting [4]), 1.2 nM.

These data come from patent US11981658B2, “Substituted aminopyridine compounds as EGFR inhibitors” (YUHAN CORPORATION, priority 2021, dated 2024).
